From ChEMBL document CHEMBL2429758, “3-aroylmethylene-2,3,6,7-tetrahydro-1H-pyrazino[2,1-a]isoquinolin-4(11bH)-ones as potent Nrf2/ARE inducers in human cancer cells and AOM-DSS treated mice” (J Med Chem, 2013)

Legend:
Format in all cases: cell-based
[1] = target: T1, Nuclear factor erythroid 2-related factor 2 (Homo sapiens) (UniProt Q16236); test: Induction of Nrf2-mediated ARE activity in human HepG2-ARE-C8 cells at 10 uM after 12 hrs by luciferase reporter gene assay relative to control
T1 sequence (whole entry): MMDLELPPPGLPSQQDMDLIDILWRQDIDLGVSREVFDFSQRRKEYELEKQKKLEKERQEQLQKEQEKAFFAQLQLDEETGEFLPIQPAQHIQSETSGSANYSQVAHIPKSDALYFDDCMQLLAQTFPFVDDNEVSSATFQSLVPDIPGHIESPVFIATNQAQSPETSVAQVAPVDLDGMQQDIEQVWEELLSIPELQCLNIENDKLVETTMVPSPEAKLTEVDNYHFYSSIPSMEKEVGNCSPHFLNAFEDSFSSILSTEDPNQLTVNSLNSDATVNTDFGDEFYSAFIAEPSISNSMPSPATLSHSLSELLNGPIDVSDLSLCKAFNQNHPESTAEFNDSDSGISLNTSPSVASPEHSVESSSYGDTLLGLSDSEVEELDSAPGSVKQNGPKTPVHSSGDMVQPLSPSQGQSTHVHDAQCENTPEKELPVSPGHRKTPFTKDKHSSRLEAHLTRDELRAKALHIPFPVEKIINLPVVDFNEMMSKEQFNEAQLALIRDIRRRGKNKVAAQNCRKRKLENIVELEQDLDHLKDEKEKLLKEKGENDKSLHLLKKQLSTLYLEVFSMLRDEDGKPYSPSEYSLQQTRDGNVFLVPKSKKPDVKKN

[2] = target: T1, Nuclear factor erythroid 2-related factor 2 (Homo sapiens); test: Induction of Nrf2-mediated ARE activity in human HepG2-ARE-C8 cells at 0.1 uM after 12 hrs by luciferase reporter gene assay relative to control
[3] = target: T1, Nuclear factor erythroid 2-related factor 2 (Homo sapiens); test: Induction of Nrf2-mediated ARE activity in human HepG2-ARE-C8 cells at 0.01 uM after 12 hrs by luciferase reporter gene assay relative to control
[4] = target: T1, Nuclear factor erythroid 2-related factor 2 (Homo sapiens); test: Induction of Nrf2-mediated ARE activity in human HepG2-ARE-C8 cells at 5 uM after 12 hrs by luciferase reporter gene assay relative to control
[5] = target: T1, Nuclear factor erythroid 2-related factor 2 (Homo sapiens); test: Induction of Nrf2-mediated ARE activity in human HepG2-ARE-C8 cells at 1 uM after 12 hrs by luciferase reporter gene assay relative to control

| SMILES | fold change (FC) [1] | fold change (FC) [2] | fold change (FC) [3] | fold change (FC) [4] | fold change (FC) [5] |
| --- | --- | --- | --- | --- | --- |
| COc1cccc2c1CCN1C(=O)/C(=C/C(=O)c3cccc(F)c3)NCC21 (stereo not given) | 3.7 | 1.43 | 0.79 | 4.85 | 4.02 |
| COc1cc2c(cc1OC)C1CN/C(=C\C(=O)c3cccc([N+](=O)[O-])c3)C(=O)N1CC2 (stereo not given) | 2.51 | 1.08 | 1.31 | 1.44 | 1.03 |
| O=C(/C=C1\NCC2c3ccccc3CCN2C1=O)c1ccccc1Cl (stereo not given) | 6.04 | 2.19 | 1.19 | 5.46 | 2.77 |
| O=C(/C=C1\NCC2c3ccccc3CCN2C1=O)c1ccc(F)cc1 (stereo not given) | 14 | 4.39 | 2.58 | 12.3 | 8 |
| COc1cc2c(cc1OC)C1CN/C(=C\C(=O)c3cccc(F)c3)C(=O)N1CC2 (stereo not given) | 1.09 | 0.93 | 2.31 | 1.68 | 1.05 |
| COc1ccc2c(c1)CCN1C(=O)/C(=C/C(=O)c3ccccc3)NCC21 (stereo not given) | 5.36 | 1.7 | 0.65 | 8.18 | 3.8 |
| O=C(/C=C1\NCC2c3ccccc3CCN2C1=O)c1cccc(Br)c1 (stereo not given) | 15.7 | 3.4 | 3.1 | 12 | 8.97 |
| O=C(/C=C1\NCC2c3ccccc3CCN2C1=O)c1ccccc1F (stereo not given) | 16.9 | 3.64 | 2.5 | 16.5 | 8.85 |
| COc1ccccc1C(=O)/C=C1\NCC2c3ccccc3CCN2C1=O (stereo not given) | 1.99 | 1.68 | 0.96 | 1.78 | 1.51 |
| COc1ccc2c(c1)C1CN/C(=C\C(=O)c3cccc(Cl)c3)C(=O)N1CC2 (stereo not given) | 7.28 | 2.28 | 2.26 | 6.49 | 4.53 |
| COc1ccc2c(c1)C1CN/C(=C\C(=O)c3ccccc3)C(=O)N1CC2 (stereo not given) | 13 | 1.93 | 1.35 | 10.4 | 3.5 |
| COc1cccc(C(=O)/C=C2\NCC3c4ccccc4CCN3C2=O)c1 (stereo not given) | 10 | 3.69 | 1.48 | 8.65 | 5.68 |
| COc1ccc2c(c1)C1CN/C(=C\C(=O)c3ccc(F)cc3)C(=O)N1CC2 (stereo not given) | 2.48 | 1.35 | 1.29 | 1.82 | 1.74 |
| COc1cccc2c1CCN1C(=O)/C(=C/C(=O)c3ccccc3)NCC21 (stereo not given) | 6.93 | 3.53 | 1 | 6.89 | 3.57 |
| COc1ccc2c(c1)C1CN/C(=C\C(=O)c3cccc(F)c3)C(=O)N1CC2 (stereo not given) | 20.4 | 3.93 | 1.31 | 16.9 | 7.23 |
| COc1ccc2c(c1)CCN1C(=O)/C(=C/C(=O)c3cccc(F)c3)NCC21 (stereo not given) | 6.66 | 5.19 | 1.83 | 5.65 | 3.96 |
| COc1cc2c(cc1OC)C1CN/C(=C\C(=O)c3ccccc3F)C(=O)N1CC2 (stereo not given) | 1.1 | 0.8 | 1.07 | 0.97 | 0.95 |
| O=C(/C=C1\NCC2c3ccccc3CCN2C1=O)c1cccc([N+](=O)[O-])c1 (stereo not given) | 18.5 | 3.52 | 3.28 | 14.5 | 7.22 |
| O=C(/C=C1\NCC2c3ccccc3CCN2C1=O)c1ccc(Cl)cc1 (stereo not given) | 4 | 2.33 | 1.3 | 3.57 | 2.61 |
| COc1cc2c(cc1OC)C1CN/C(=C\C(=O)c3ccc(F)cc3)C(=O)N1CC2 (stereo not given) | 1.25 | 1.42 | 1.25 | 1.82 | 2.7 |

| SMILES | fold change (FC) [1] | fold change (FC) [2] | fold change (FC) [3] | fold change (FC) [4] | fold change (FC) [5] |
| --- | --- | --- | --- | --- | --- |
| O=C(/C=C1\NCC2c3ccccc3CCN2C1=O)c1ccc(Cl)cc1Cl (stereo not given) | 2.49 | 1.1 | 1.68 | 1.78 | 1.42 |
| COc1ccc2c(c1)C1CN/C(=C\C(=O)c3ccccc3F)C(=O)N1CC2 (stereo not given) | 12.4 | 2.75 | 1.44 | 9.84 | 3.44 |
| COc1cc2c(cc1OC)C1CN/C(=C\C(=O)c3ccccc3)C(=O)N1CC2 (stereo not given) | 1.67 | 0.85 | 0.86 | 1.46 | 1.35 |
| COc1cccc(C(=O)/C=C2\NCC3c4cc(OC)ccc4CCN3C2=O)c1 (stereo not given) | 1.59 | 1.21 | 1.08 | 1.36 | 1.24 |
| COc1cccc(C(=O)/C=C2\NCC3c4cc(OC)c(OC)cc4CCN3C2=O)c1 (stereo not given) | 1.06 | 1.18 | 1.45 | 1.11 | 0.95 |
| COc1cccc2c1CCN1C(=O)/C(=C/C(=O)c3ccccc3F)NCC21 (stereo not given) | 4.26 | 2.83 | 1.93 | 5.89 | 2.98 |
| O=C(/C=C1\NCC2c3ccccc3CCN2C1=O)c1cc(F)cc(F)c1 (stereo not given) | 7.62 | 2.92 | 1.34 | 5.22 | 4.75 |
| O=C(/C=C1\NCC2c3ccccc3CCN2C1=O)c1cccc(C(F)(F)F)c1 (stereo not given) | 3.25 | 1.7 | 2.22 | 3.14 | 1.76 |
| O=C(/C=C1\NCC2c3ccccc3CCN2C1=O)c1ccccc1[N+](=O)[O-] (stereo not given) | 2.8 | 1.29 | 1.28 | 2.41 | 1.3 |
| Cc1ccc(C(=O)/C=C2\NCC3c4ccccc4CCN3C2=O)cc1 (stereo not given) | 5.22 | 3.3 | 2.01 | 4.42 | 3.25 |
| COc1ccc(C(=O)/C=C2\NCC3c4ccccc4CCN3C2=O)cc1OC (stereo not given) | 2.15 | 1.77 | 1.52 | 2.11 | 1.93 |
| COc1cc2c(cc1OC)C1CN/C(=C\C(=O)c3cccc(Cl)c3)C(=O)N1CC2 (stereo not given) | 1.44 | 1.47 | 1.41 | 1.15 | 1.07 |
| O=C(/C=C1\NCC2c3ccccc3CCN2C1=O)c1ccc([N+](=O)[O-])cc1 (stereo not given) | 3.81 | 2.34 | 1.2 | 2.43 | 1.76 |
| O=C(/C=C1\NCC2c3ccccc3CCN2C1=O)c1cccc(Cl)c1 (stereo not given) | 16.5 | 3.77 | 1.94 | 14 | 10.7 |
| O=C(/C=C1\NCC2c3ccccc3CCN2C1=O)c1ccc(-c2ccccc2)cc1 (stereo not given) | 2.09 | 1.67 | 1.62 | 1.69 | 1.41 |
| COc1ccc2c(c1)C1CN/C(=C\C(=O)c3cccc([N+](=O)[O-])c3)C(=O)N1CC2 (stereo not given) | 6.5 | 1.75 | 1.45 | 5.76 | 3.08 |
| COc1ccc(C(=O)/C=C2\NCC3c4ccccc4CCN3C2=O)cc1 (stereo not given) | 5.07 | 2.3 | 1.15 | 3.3 | 2.74 |
| O=C(/C=C1\NCC2c3ccccc3CCN2C1=O)c1ccc(F)c(F)c1 (stereo not given) | 6.38 | 2.25 | 2.12 | 5.47 | 3.23 |
| COc1ccc2c(c1)CCN1C(=O)/C(=C/C(=O)c3ccccc3F)NCC21 (stereo not given) | 7.7 | 1.45 | 2.58 | 5.18 | 3.73 |
